This is an account of results in patent US20070254863A1 (priority 2006, published 2007).

The subject of assay [1] is rat perifused pancreatic islets. The assay can be described thus: KATP opening effects through insulin secretion in rat perifused pancreatic islets. The assay is classed as cell-based. The note with it: 11 mM glucose.
Procedure: Determination of the KATP Opening Effects of Compounds Through Insulin Secretion in Rat Perifused Pancreatic Islets
The animals were maintained on a 12 h light-dark cycle (lights on 06.00-18.00 h) with free access to standard rodent diet (B&K Universal Ltd standard rat and mouse diet (BK 001P), Beekay Feeds, B&K Universal Ltd, Hull, East Riding of Yorkshire) and tap water. The rats were conditioned to this environment for at least one week before experimentation.
Experimental procedures: After the rats were sacrificed, the branch of the bile duct leading to the liver and the duodenal end of the duct in the pancreas were clamped and the pancreas distended by injection of ice-cold 0.9 mg/ml collagenase solution into the bile duct. […] Following incubation, 10 ml of cold buffer was added and the suspension shaken vigorously by hand for 1 min. The islets were allowed to settle for 5 min on ice and washed three times using ice-cold buffer. Well-formed and good-sized islets from three rats were hand-picked (under a low power microscope) and pooled and a final selection of islet transferred to the perifusion apparatus.
Two experiments were performed in parallel in two identical, independent sets of perifusion apparatus each consisting of sufficient number of chambers. Each chamber was loaded with 20 hand-picked islets. Islets were perifused for an initial 30 min period in media containing 4 mM glucose. Perifusate was then collected at 2 min intervals for the remainder of the experiment. […] Perifusate fractions were stored at −75° C. until required for insulin assay. Insulin content of fractions were assayed using a 96-well ELISA assay (Mercodia). Initial insulin assays were performed in triplicate on three pooled fractions from each chamber.
Data were initially expressed as a simple mean of the three experiments for insulin secretion (pg/islet/min) and multiple t-tests (against the corresponding vehicle time period) used to determine potential significant effects of treatments. Alternatively, data were also calculated as a % vehicle effect for each experimental day. This latter approach was deemed to be the more powerful analysis as it corrected for the day to day variation in insulin release from the islets.
Another assay addresses rat SUR2A (Rattus norvegicus, UniProt Q63563). The assay can be described thus: In vitro binding affinity to rodent KATP channels: SUR2A ([3H]P1075 / [3H]glibenclamide displacement, COS cell membranes). In short, it runs like this: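 COS-cell membranes transiently expressing rat SUR2A incubated 1 h at room temperature in 50 mM Tris pH 7.4, ~0.7 mM free Mg2+, with 3 nM [3H]P1075 (wild type) or [3H]glibenclamide (SUR2AY1205S); filtration read-out. Ki from IC50, reported as pKi; 9-15 concentrations per curve.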

The target in assay [2] is human cannabinoid CB2 receptor (Homo sapiens, UniProt P34972). Put plainly: biochemical. The assay is classed as binding. The protocol: 3. In Vitro Binding Affinity of the Test Compounds to CB2 Receptors
After incubation of a freshly prepared cell membrane preparation with the [^3H]-ligand, with or without the addition of the compounds described herein, separation of bound and free ligand is performed by filtration over glass-fiber filters. Radioactivity on the filter is measured by liquid scintillation counting.

Sequence of human cannabinoid CB2 receptor (P34972 whole entry): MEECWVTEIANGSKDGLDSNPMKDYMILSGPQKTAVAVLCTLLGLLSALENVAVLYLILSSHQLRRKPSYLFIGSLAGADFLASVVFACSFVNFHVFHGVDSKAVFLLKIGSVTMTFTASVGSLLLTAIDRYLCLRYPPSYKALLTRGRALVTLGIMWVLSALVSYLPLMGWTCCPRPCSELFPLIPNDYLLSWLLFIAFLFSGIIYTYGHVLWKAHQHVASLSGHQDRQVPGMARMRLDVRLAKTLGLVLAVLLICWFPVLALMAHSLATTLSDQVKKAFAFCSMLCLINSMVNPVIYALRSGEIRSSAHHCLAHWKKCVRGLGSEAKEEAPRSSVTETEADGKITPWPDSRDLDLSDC
Sequence of rat SUR2A (Q63563 whole entry): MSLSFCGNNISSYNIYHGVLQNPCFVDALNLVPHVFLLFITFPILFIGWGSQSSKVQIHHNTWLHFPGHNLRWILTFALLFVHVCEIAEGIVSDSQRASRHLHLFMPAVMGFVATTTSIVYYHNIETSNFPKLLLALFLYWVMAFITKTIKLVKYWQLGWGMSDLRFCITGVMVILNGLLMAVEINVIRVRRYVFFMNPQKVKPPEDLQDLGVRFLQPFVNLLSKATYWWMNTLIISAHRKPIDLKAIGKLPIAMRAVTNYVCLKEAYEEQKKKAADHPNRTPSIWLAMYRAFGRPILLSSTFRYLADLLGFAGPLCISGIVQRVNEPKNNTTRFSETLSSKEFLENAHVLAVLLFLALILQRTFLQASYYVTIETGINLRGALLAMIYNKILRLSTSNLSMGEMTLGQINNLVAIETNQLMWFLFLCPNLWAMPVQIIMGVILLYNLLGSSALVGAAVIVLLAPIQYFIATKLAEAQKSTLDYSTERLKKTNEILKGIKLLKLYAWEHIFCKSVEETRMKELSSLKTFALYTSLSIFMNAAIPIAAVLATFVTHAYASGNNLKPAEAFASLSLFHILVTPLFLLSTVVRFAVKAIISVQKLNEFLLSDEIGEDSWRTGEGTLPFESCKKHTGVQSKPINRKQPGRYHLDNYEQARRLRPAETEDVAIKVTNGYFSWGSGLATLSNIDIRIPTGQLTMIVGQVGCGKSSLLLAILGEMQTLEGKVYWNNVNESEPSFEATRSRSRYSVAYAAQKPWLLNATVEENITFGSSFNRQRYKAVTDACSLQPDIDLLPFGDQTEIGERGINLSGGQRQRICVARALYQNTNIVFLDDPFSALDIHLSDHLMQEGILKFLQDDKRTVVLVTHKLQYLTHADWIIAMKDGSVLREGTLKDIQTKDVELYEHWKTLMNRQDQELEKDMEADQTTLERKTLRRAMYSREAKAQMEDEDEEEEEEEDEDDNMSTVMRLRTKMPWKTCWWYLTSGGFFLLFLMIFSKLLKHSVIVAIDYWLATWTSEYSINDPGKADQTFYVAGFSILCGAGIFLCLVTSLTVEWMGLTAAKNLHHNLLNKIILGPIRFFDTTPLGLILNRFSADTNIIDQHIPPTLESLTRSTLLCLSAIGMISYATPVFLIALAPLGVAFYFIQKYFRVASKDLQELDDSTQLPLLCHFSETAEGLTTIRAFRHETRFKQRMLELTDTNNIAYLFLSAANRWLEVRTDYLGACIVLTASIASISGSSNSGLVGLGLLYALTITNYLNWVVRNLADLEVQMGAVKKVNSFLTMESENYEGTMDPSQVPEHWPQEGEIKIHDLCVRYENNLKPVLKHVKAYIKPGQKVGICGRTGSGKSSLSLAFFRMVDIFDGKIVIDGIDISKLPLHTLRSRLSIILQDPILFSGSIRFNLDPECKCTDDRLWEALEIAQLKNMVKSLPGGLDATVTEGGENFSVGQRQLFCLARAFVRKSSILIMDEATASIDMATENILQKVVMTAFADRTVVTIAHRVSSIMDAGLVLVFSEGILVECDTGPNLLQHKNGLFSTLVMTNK

For `CCc1c(C(=O)NN2CCCCC2)nc(-c2ccccc2Cl)n1-c1ccc(Cl)cc1` [1-(4-Chloro-phenyl)-2-(2-chloro-phenyl)-5-ethyl-1H-imidazole-4-carboxylic acid piperidin-1-ylamide, reference compound], the “% Inhibition 0-30 (insulin secretion)” value in assay [1] (0-30 minutes) is 59%. Moreover, the “% Inhibition 30-60 (insulin secretion)” value in assay [1] (30-60 minutes) is listed as 45%. For the same molecule, the pKi at rat SUR2A is recorded as 4.8. This molecule also had a Ki in assay [2] of 1000 nM.
